The source of these data is ChEMBL document CHEMBL1145873, “Acylsulfonamide-containing PTP1B inhibitors designed to mimic an enzyme-bound water of hydration” (Bioorg Med Chem Lett, 2003).

Test [1] addresses T1, Tyrosine-protein phosphatase non-receptor type 1 (Homo sapiens, UniProt P18031).
T1 sequence (P18031 whole entry): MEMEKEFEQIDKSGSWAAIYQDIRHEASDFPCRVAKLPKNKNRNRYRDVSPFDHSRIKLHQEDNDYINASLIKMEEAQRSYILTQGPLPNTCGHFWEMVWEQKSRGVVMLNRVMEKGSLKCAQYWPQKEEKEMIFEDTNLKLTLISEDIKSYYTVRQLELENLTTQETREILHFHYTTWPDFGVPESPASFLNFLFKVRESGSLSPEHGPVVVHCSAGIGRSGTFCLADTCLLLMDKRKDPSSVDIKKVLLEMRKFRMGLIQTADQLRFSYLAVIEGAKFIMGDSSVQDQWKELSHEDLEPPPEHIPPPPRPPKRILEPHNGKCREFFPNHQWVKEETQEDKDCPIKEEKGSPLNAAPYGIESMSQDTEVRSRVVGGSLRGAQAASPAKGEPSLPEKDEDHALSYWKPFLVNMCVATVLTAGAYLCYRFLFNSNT
Nature of the test: Inhibitory concentration towards recombinant human Protein-tyrosine phosphatase 1B was determined.

In test [2] the target is T1, Tyrosine-protein phosphatase non-receptor type 1. Nature of the test: Binding affinity towards recombinant human Protein-tyrosine phosphatase 1B was determined.

`C[C@@H]1CCC[C@H](C)N1NC(=O)c1ccc(Cl)c(S(=O)(=O)NC(=O)c2ccc3cc(C(F)(F)P(=O)(O)O)ccc3c2)c1`: in test [1], the IC50 was determined as 19 µM.

Regarding `O=C(NS(=O)(=O)Cc1ccccc1)c1ccc2cc(C(F)(F)P(=O)(O)O)ccc2c1`, the IC50 in test [1] stood at 24 µM.

`O=C(NS(=O)(=O)c1cc(C2(O)NC(=O)c3ccccc32)ccc1Cl)c1ccc2cc(C(F)(F)P(=O)(O)O)ccc2c1` (stereo not given): in test [1], the 50% inhibitory concentration (IC50) is 25 µM.

Regarding `O=C(NS(=O)(=O)c1ccccc1)c1ccc2cc(C(F)(F)P(=O)(O)O)ccc2c1`, in test [1], the half-inhibitory concentration (IC50) worked out at 30 µM.

Turning to `CS(=O)(=O)NC(=O)c1ccc2cc(C(F)(F)P(=O)(O)O)ccc2c1`, the Ki in test [2] came to 17 µM. Besides, the IC50 in test [1] amounted to 41 µM.

Turning to `CCN1CCCC1CNC(=O)c1cc(S(=O)(=O)NC(=O)c2ccc3cc(C(F)(F)P(=O)(O)O)ccc3c2)ccc1OC` (stereo not given), the IC50 in test [1] was found to be 46 µM.

On to `CC1Cc2ccccc2N1NC(=O)c1ccc(Cl)c(S(=O)(=O)NC(=O)c2ccc3cc(C(F)(F)P(=O)(O)O)ccc3c2)c1` (stereo not given), for which the IC50 in test [1] was 20 µM.

On to `CCCCCCCCCCCCCCCCOc1ccc(S(=O)(=O)NC(=O)c2ccc3cc(C(F)(F)P(=O)(O)O)ccc3c2)cc1[N+](=O)[O-]`, for which the IC50 in test [1] was 0.35 µM.

For `CCCCCCCCCC(=O)Nc1ccc(S(=O)(=O)NC(=O)c2ccc3cc(C(F)(F)P(=O)(O)O)ccc3c2)cc1`, in test [1], the 50% inhibitory concentration (IC50) stood at 18 µM.
